Assay results as given in PMC4231751, “Highly potent dUTPase inhibition by a bacterial repressor protein reveals a novel mechanism for gene expression control” (Nucleic Acids Research, 2014).

Biological target: T1, Φ11 dUTPase (Φ11DUT) (Staphylococcus phage phi 11, UniProt Q8SDV3)
T1 construct: tag-free, expressed from pETDuet-1; Q-sepharose and Superdex 75; homotrimer
Experiment: phenol red proton release assay, […] nm
Type: biochemical
Conditions: 30 μM dUTP, 10 nM enzyme, 1 mM Hepes pH 7.5, 5 mM MgCl2, 150 mM KCl, 293 K

O=c1ccn([C@H]2C[C@H](O)[C@@H](COP(=O)(O)OP(=O)(O)OP(=O)(O)O)O2)c(=O)[nH]1 [dUTP]
phenol red proton release assay, 559 nm: Proton release during the transformation of dUTP into dUMP and PPi was followed continuously
